Measurements as given in US5210193A, “Piperazine derivatives” (American Cyanamid Company, priority 1990, dated 1993).
Values after ≈ are worked out from the molar mass of the structure shown.

Tests used:
Test in all cases: in vitro antibacterial MIC, agar plate dilution
Type in all cases: cell-based
[1] = system: Enterobacter aerogenes VGH 84-36; details: Klebsiella aerogenes, VGH8436, 18 hours, 35° C., read-out: MIC
Experimental: (§1) The in vitro antimicrobial spectrum of the compounds of ths invention were determined by the agar plate dilution method with Mueller-Hinton agar and an inoculum of each test organism of approximately 10^4 colony forming units delivered by the Steers replicating device. The minimal inhibitory concentration (MIC) in mcg/ml is defined as the lowest concentration of test compound that inhibited visible growth after 18 hours incubation at 35° C. Results are given in Table I, with the test compounds identified by the number of their hereinafter described examples.

Klebsiella pneumoniae AD = details: Klebsiella pneumoniae, 18 h, 35° C., read-out: MIC
Experimental: as §1

[2] = system: Staphylococcus aureus Smith; details: Staphylococcus aureus, 18 h, 35° C., read-out: MIC
Experimental: as §1

[3] = system: Proteus rettgeri CMC 84-41; details: Providencia rettgeri, CMC8441, 18 h, 35° C., read-out: MIC
Experimental: as §1

[4] = system: Morganella morganii VGH 84-11; details: VGH8411, 18 hours, 35° C., read-out: MIC
Experimental: as §1

[5] = system: Klebsiella pneumoniae MOR 84-4; details: Klebsiella pneumoniae, MOR844, 18 h, 35° C., read-out: MIC
Experimental: as §1

[6] = system: Pseudomonas aeruginosa VGH 84-4; details: Pseudomonas aeruginosa, VGH844, 18 h, 35° C., read-out: MIC
Experimental: as §1

[7] = system: Escherichia coli CMC 84-11; details: Escherichia coli, CMC8411, 18 h, 35° C., read-out: MIC
Experimental: as §1

[8] = system: Escherichia coli ATCC 25922; details: Escherichia coli, ATCC25922, 18 h, 35° C., read-out: MIC
Experimental: as §1

[9] = system: Enterobacter cloacae VGH 84-37; details: Enterobacter cloacae, VGH8437, 18 h, 35° C., read-out: MIC
Experimental: as §1

[10] = system: Staphylococcus aureus ATCC 25913; details: ATCC25913, 18 hours, 35° C.
Experimental: as §1

| Structure (SMILES) | MIC [1] | MIC (Klebsiella pneumoniae AD) | MIC [2] | MIC [3] | MIC [4] | MIC [5] | MIC [6] | MIC [7] | MIC [8] | MIC [9] | MIC [10] |
| --- | --- | --- | --- | --- | --- | --- | --- | --- | --- | --- | --- |
| CCn1cc(C(=O)O)c(=O)c2cc(F)c(N3CCN(C)C(c4ccsc4)C3)cc21 (stereo not shown) [Example 35, 1Ethyl-6-fluoro-1,4-dihydro-7-[4-methyl-3-(3-thienyl)-1-piperazinyl]-4-oxo-3-quinolinecarboxylic acid] | 4 µg/mL (≈ 9.63 µM) | 2 µg/mL (≈ 4.81 µM) | ≤ 0.12 µg/mL | 2 µg/mL (≈ 4.81 µM) | 2 µg/mL (≈ 4.81 µM) | 4 µg/mL (≈ 9.63 µM) | 32 µg/mL (≈ 77 µM) | 1 µg/mL (≈ 2.41 µM) | 2 µg/mL (≈ 4.81 µM) | 2 µg/mL (≈ 4.81 µM) | 0.5 µg/mL (≈ 1.2 µM) |
| CCn1cc(C(=O)O)c(=O)c2cc(F)c(N3CCN(C)C(COC)C3)cc21 (stereo not shown) [Example 10, 1-Ethyl-6-fluoro-1,4-dihydro-7-[3-(methoxymethyl)-4-methyl-1-piperazinyl]-4-oxo-3-quinolinecarboxylic acid] | 2 µg/mL (≈ 5.3 µM) | 1 µg/mL (≈ 2.65 µM) | 1 µg/mL (≈ 2.65 µM) | 0.5 µg/mL (≈ 1.32 µM) | 2 µg/mL (≈ 5.3 µM) | 2 µg/mL (≈ 5.3 µM) | 32 µg/mL (≈ 84.8 µM) | 1 µg/mL (≈ 2.65 µM) | 2 µg/mL (≈ 5.3 µM) | 1 µg/mL (≈ 2.65 µM) | 2 µg/mL (≈ 5.3 µM) |
| CCn1cc(C(=O)O)c(=O)c2cc(F)c(N3CCNC(c4ccc(Br)s4)C3)cc21 (stereo not shown) [Example 13, 7-[3-(5-Bromo-2-thienyl)-1-piperazinyl]-1-ethyl-6-fluoro-1,4-dihydro-4-oxo-3-quinolinecarboxylic acid] | > 256 µg/mL | 16 µg/mL (≈ 33.3 µM) | 0.5 µg/mL (≈ 1.04 µM) | 16 µg/mL (≈ 33.3 µM) | 16 µg/mL (≈ 33.3 µM) | 64 µg/mL (≈ 133 µM) | > 256 µg/mL | 16 µg/mL (≈ 33.3 µM) | 16 µg/mL (≈ 33.3 µM) | 32 µg/mL (≈ 66.6 µM) | 2 µg/mL (≈ 4.16 µM) |
| CCn1cc(C(=O)O)c(=O)c2cc(F)c(N3CCN(C)C(COc4ccccc4)C3)cc21 (stereo not shown) [Example 11, 1-Ethyl-6-fluoro-1,4-dihydro-7-[4-methyl-3-(phenoxy-methyl)-1-piperazinyl]-4-oxo-3-quinolinecarboxylic acid] | 8 µg/mL (≈ 18.2 µM) | 4 µg/mL (≈ 9.1 µM) | 1 µg/mL (≈ 2.28 µM) | 2 µg/mL (≈ 4.55 µM) | 4 µg/mL (≈ 9.1 µM) | 8 µg/mL (≈ 18.2 µM) | 64 µg/mL (≈ 146 µM) | 2 µg/mL (≈ 4.55 µM) | 4 µg/mL (≈ 9.1 µM) | 4 µg/mL (≈ 9.1 µM) | 2 µg/mL (≈ 4.55 µM) |
| CCn1cc(C(=O)O)c(=O)c2cc(F)c(N3CCN(C)C(c4ccco4)C3)cc21 (stereo not shown) [Example 32, 1-Ethyl-6-fluoro-7-[3-(2-furanyl)-4-methyl-1-piperazinyl]-1,4-dihydro-4-oxo-3-quinolinecarboxylic acid] | 4 µg/mL (≈ 10 µM) | 2 µg/mL (≈ 5.01 µM) | 0.25 µg/mL (≈ 0.626 µM) | 2 µg/mL (≈ 5.01 µM) | 2 µg/mL (≈ 5.01 µM) | 2 µg/mL (≈ 5.01 µM) | 16 µg/mL (≈ 40.1 µM) | 1 µg/mL (≈ 2.5 µM) | 1 µg/mL (≈ 2.5 µM) | 1 µg/mL (≈ 2.5 µM) | 1 µg/mL (≈ 2.5 µM) |

These reach a lower MIC [1]. Values come first.

| MIC [1] | MIC (Klebsiella pneumoniae AD) | MIC [2] | MIC [3] | MIC [4] | MIC [5] | MIC [6] | MIC [7] | MIC [8] | MIC [9] | MIC [10] | Structure (SMILES) |
| --- | --- | --- | --- | --- | --- | --- | --- | --- | --- | --- | --- |
| 1 µg/mL (≈ 2.35 µM) | 0.5 µg/mL (≈ 1.18 µM) | ≤ 0.12 µg/mL | 0.5 µg/mL (≈ 1.18 µM) | 0.5 µg/mL (≈ 1.18 µM) | 0.5 µg/mL (≈ 1.18 µM) | 8 µg/mL (≈ 18.8 µM) | 0.5 µg/mL (≈ 1.18 µM) | 0.5 µg/mL (≈ 1.18 µM) | 0.25 µg/mL (≈ 0.588 µM) | 0.5 µg/mL (≈ 1.18 µM) | CCn1cc(C(=O)O)c(=O)c2cc(F)c(N3CCNC(COc4ccccc4)C3)cc21 (stereo not shown) [Example 9, 1-Ethyl-6-fluoro-1,4-dihydro-4-oxo-7-[3-(phenoxy-methyl]-1-piperazinyl]-3-quinolinecarboxylic acid] |
| 0.5 µg/mL (≈ 1.25 µM) | ≤ 0.12 µg/mL | ≤ 0.12 µg/mL | 0.25 µg/mL (≈ 0.626 µM) | 0.25 µg/mL (≈ 0.626 µM) | 0.25 µg/mL (≈ 0.626 µM) | 4 µg/mL (≈ 10 µM) | ≤ 0.12 µg/mL | 0.25 µg/mL (≈ 0.626 µM) | 0.25 µg/mL (≈ 0.626 µM) | ≤ 0.12 µg/mL | CCn1cc(C(=O)O)c(=O)c2cc(F)c(N3CCNC(c4ccc(C)o4)C3)cc21 (stereo not shown) [Example 42, 1-Ethyl-6-fluoro-1,4-dihydro-7-[3-(5-methyl-2-furanyl)-1-piperazinyl]-4-oxo-3-quinolinecarboxylic acid] |
| 0.5 µg/mL (≈ 1.38 µM) | 0.25 µg/mL (≈ 0.688 µM) | 0.5 µg/mL (≈ 1.38 µM) | 0.5 µg/mL (≈ 1.38 µM) | 0.25 µg/mL (≈ 0.688 µM) | 0.5 µg/mL (≈ 1.38 µM) | 8 µg/mL (≈ 22 µM) | 0.25 µg/mL (≈ 0.688 µM) | 0.5 µg/mL (≈ 1.38 µM) | 0.25 µg/mL (≈ 0.688 µM) | 2 µg/mL (≈ 5.5 µM) | CCn1cc(C(=O)O)c(=O)c2cc(F)c(N3CCNC(COC)C3)cc21 (stereo not shown) [Example 7, 1-Ethyl-6-fluoro-1,4-dihydro-7-[3-(methoxymethyl)-1-piperazinyl]-4-oxo-3-quinolinecarboxylic acid] |
